A word on the zone of inhibition: it is the size of the clear area around the sample on an inoculated plate. By IC50 is commonly meant the concentration at which inhibition is half-maximal. The melting point is the temperature of the solid-liquid transition.

Here are results for four compounds from article PMC6832920, “Synthesis, Docking Studies, and In Vitro Evaluation of Some Novel Thienopyridines and Fused Thienopyridine–Quinolines as Antibacterial Agents and DNA Gyrase Inhibitors” (Molecules, 2019).

Data set [1] relates to Staphylococcus aureus 25923. The data set is described as follows: agar disc-diffusion antibacterial assay. Type of data set: cell-based. The following applies: S. aureus 25923, disc loaded with 100 μg, 37 °C, 24 h, read-out: diameter of inhibition zone. Background: In agar diffusion tests the substance spreads into inoculated agar from a disc or well.
Method: (§1) The clinical control strains of Gram-negative bacteria (Escherichia coli 8739, Salmonella typhimurium 14028, Pseudomonas aeruginosa 27853) and Gram-positive bacteria (Bacillus subtilis 6633, Bacillus cereus 33018, Staphylococcus aureus 25923), were obtained from microbial inoculums by subculturing microorganisms into nutrient broth (NB) at 37 °C for 18 h, and were adjusted to 0.125 A° at 625 nm (equivalent to a McFarland 0.5) in 2-fold NB. A 100 μL measure of NB containing each test microorganism was added to the sterile Petri dishes. Antibacterial testing was carried out on all compounds (3a,b–14) using the agar disc-diffusion method [40]. Sterile nutrients were inoculated with 100 μL cell suspension of the chosen test microorganism and poured into Petri dishes (20 cm diameter). Filter paper discs (Whatman, No.3, diameter 5 mm) were loaded with 10 μL containing 100 μg of the tested compounds, as well as the standard drug. Composite compound disks were placed on the surface of inoculated agar plates and kept at low temperatures before incubation in order to support the swelling and diffusion of the microbial growth. The plates were incubated at 37 °C in the incubator. Experiments were performed in duplicate and the diameters of inhibition zones were measured after 24 h. A diameter of inhibition zone (DIZ) assay was performed to evaluate the antimicrobial potential of the compounds against the tested organisms compared with reference antibiotics.
The subject of data set [2] is Pseudomonas aeruginosa 27853. The experiment in a line: agar disc-diffusion antibacterial assay. The data set is classed as cell-based. The following applies: P. aeruginosa 27853, disc loaded with 100 μg, 37 °C, 24 h, read-out: diameter of inhibition zone.
Method: as §1
Data set [3] concerns Bacillus cereus 33018. The data set is described as follows: agar disc-diffusion antibacterial assay. The data set is classed as cell-based. As to conditions: B. cereus 33018, disc loaded with 100 μg, 37 °C, 24 h, read-out: diameter of inhibition zone.
Method: (§2) A 100 μL measure of NB containing each test microorganism was added to the sterile Petri dishes. Antibacterial testing was carried out on all compounds (3a,b–14) using the agar disc-diffusion method [40]. Sterile nutrients were inoculated with 100 μL cell suspension of the chosen test microorganism and poured into Petri dishes (20 cm diameter). Filter paper discs (Whatman, No.3, diameter 5 mm) were loaded with 10 μL containing 100 μg of the tested compounds, as well as the standard drug. Composite compound disks were placed on the surface of inoculated agar plates and kept at low temperatures before incubation in order to support the swelling and diffusion of the microbial growth. The plates were incubated at 37 °C in the incubator. Experiments were performed in duplicate and the diameters of inhibition zones were measured after 24 h. A diameter of inhibition zone (DIZ) assay was performed to evaluate the antimicrobial potential of the compounds against the tested organisms compared with reference antibiotics.
Data set [4] concerns Pseudomonas aeruginosa 27853. The data set is described as follows: MIC determination by dilution procedure. Type of data set: cell-based. As to conditions: Pseudomonas aeruginosa, 27853, P. aeruginosa 27853; dilutions 125-1.95 μg/mL; read-out: minimum inhibitory concentration (MIC).
The test system of data set [5] is Salmonella typhimurium 14028. The experiment in a line: MIC determination by dilution procedure. As to conditions: Salmonella enterica; S. typhimurium 14028; dilutions 125-1.95 μg/mL; read-out: minimum inhibitory concentration (MIC). Type of data set: cell-based.
Method: (§3) The clinical control strains of Gram-negative bacteria (Escherichia coli 8739, Salmonella typhimurium 14028, Pseudomonas aeruginosa 27853) and Gram-positive bacteria (Bacillus subtilis 6633, Bacillus cereus 33018, Staphylococcus aureus 25923), were obtained from microbial inoculums by subculturing microorganisms into nutrient broth (NB) at 37 °C for 18 h, and were adjusted to 0.125 A° at 625 nm (equivalent to a McFarland 0.5) in 2-fold NB. A 100 μL measure of NB containing each test microorganism was added to the sterile Petri dishes. Antibacterial testing was carried out on all compounds (3a,b–14) using the agar disc-diffusion method [40]. Sterile nutrients were inoculated with 100 μL cell suspension of the chosen test microorganism and poured into Petri dishes (20 cm diameter). Filter paper discs (Whatman, No.3, diameter 5 mm) were loaded with 10 μL containing 100 μg of the tested compounds, as well as the standard drug. Composite compound disks were placed on the surface of inoculated agar plates and kept at low temperatures before incubation in order to support the swelling and diffusion of the microbial growth. The plates were incubated at 37 °C in the incubator. Experiments were performed in duplicate and the diameters of inhibition zones were measured after 24 h.
Data set [6] relates to Bacillus cereus 33018. The experiment in a line: MIC determination by dilution procedure. The data set is classed as cell-based. As to conditions: B. cereus 33018, dilutions 125-1.95 μg/mL, read-out: minimum inhibitory concentration (MIC).
Method: as §2
In data set [7] the test system is Escherichia coli 8739. The experiment in a line: agar disc-diffusion antibacterial assay. Type of data set: cell-based. The following applies: E. coli 8739, disc loaded with 100 μg, 37 °C, 24 h, read-out: diameter of inhibition zone.
Method: as §1
For data set [8], the system named is Escherichia coli 8739. The experiment in a line: MIC determination by dilution procedure. Type of data set: cell-based. The following applies: E. coli 8739, dilutions 125-1.95 μg/mL, read-out: minimum inhibitory concentration (MIC).
In data set [9] the test system is Salmonella typhimurium 14028. The experiment in a line: agar disc-diffusion antibacterial assay. As to conditions: Salmonella enterica; S. typhimurium 14028; disc loaded with 100 μg; 37 °C, 24 h; read-out: diameter of inhibition zone. Type of data set: cell-based.
Method: as §3
Data set [10] concerns Bacillus subtilis 6633. The experiment in a line: MIC determination by dilution procedure. As to conditions: B. subtilis 6633, dilutions 125-1.95 μg/mL, read-out: minimum inhibitory concentration (MIC). The data set is classed as cell-based.
Method: as §2
A further data set addresses T1, DNA gyrase from E. coli (Escherichia coli, UniProt P0AES6).
T1 construct: purchased TopoGEN
The data set is described as follows: Escherichia coli DNA gyrase supercoiling inhibition assay. Type of data set: biochemical.

In data set [11] the test system is Bacillus subtilis 6633. The experiment in a line: agar disc-diffusion antibacterial assay. Type of data set: cell-based. The following applies: B. subtilis 6633, disc loaded with 100 μg, 37 °C, 24 h, read-out: diameter of inhibition zone.
Method: as §2
Data set [12] has as its system Staphylococcus aureus 25923. The data set is described as follows: MIC determination by dilution procedure. The data set is classed as cell-based. The following applies: Staphylococcus aureus, 25923, S. aureus 25923; dilutions 125-1.95 μg/mL; read-out: minimum inhibitory concentration (MIC).
Method: as §2

≈ marks a conversion by molar mass, not a printed value.

Turning to `COc1ccc(-c2cc(-c3ccco3)nc3sc(C(N)=O)c(N)c23)cc1` [Compound 3a, 3-Amino-6-(furan-2-yl)-4-(4-methoxyphenyl)thieno[2,3-b]pyridine-2-carboxamide], the zone of inhibition at 100 µg/disc in [1] was determined as 12 mm; in [2] it was 15 mm; in the data set on Bacillus cereus 33018 [3], 13 mm; with Escherichia coli 8739 [7], 18 mm; in [9] it was 15 mm; with Bacillus subtilis 6633 [11] it was 10 mm. Also, the MIC in data set [4] came out at 15.6 mg/L (≈ 42.8 µM); in [5] it was 15.6 mg/L (≈ 42.8 µM); with Bacillus cereus 33018 [6], 31.2 mg/L (≈ 85.5 µM); in the data set with Escherichia coli 8739 [8], 15.6 mg/L (≈ 42.8 µM); with Bacillus subtilis 6633 [10] it was 31.2 mg/L (≈ 85.5 µM); in data set [12] it was 31.2 mg/L (≈ 85.5 µM). The same compound yielded a half-inhibitory concentration (IC50) against DNA gyrase from E. coli of 2.26 ± 0.19 µM.
For `Nc1c2c(nc3c1sc1nc(-c4ccco4)cc(-c4cccs4)c13)CCCC2` [Compound 5b, 2-(Furan-2-yl)-4-(thiophen-2-yl)-6,7,8,9-tetrahydropyrido[3′,2′:4,5]thieno[3,2-b]quinolin-10-amine], the melting point is 248 °C. Moreover, the zone of inhibition at 100 µg/disc in data set [1] was 13 mm. Besides, the zone of inhibition at 100 µg/disc in [2] was 14 mm. Moreover, the zone of inhibition at 100 µg/disc with Bacillus cereus 33018 [3] came out at 16 mm. Further, in data set [4], the MIC stood at 15.6 mg/L (≈ 38.7 µM). Further, in [5], the MIC turned out to be 15.6 mg/L (≈ 38.7 µM). In the data set on Bacillus cereus 33018 [6], the MIC worked out at 15.6 mg/L (≈ 38.7 µM). Moreover, the zone of inhibition at 100 µg/disc in the data set with Escherichia coli 8739 [7] came out at 15 mm. In addition, in the data set on Escherichia coli 8739 [8], the MIC came out at 15.6 mg/L (≈ 38.7 µM). The zone of inhibition at 100 µg/disc in data set [9] was 17 mm. In addition, the MIC in the data set with Bacillus subtilis 6633 [10] came out at 31.2 mg/L (≈ 77.4 µM). The midpoint of inhibition on DNA gyrase from E. coli, the IC50, lay at 16.7 ± 0.88 µM. The zone of inhibition at 100 µg/disc in the data set with Bacillus subtilis 6633 [11] was 12 mm. Besides, in data set [12], the MIC came out at 31.2 mg/L (≈ 77.4 µM).
Compound `COc1ccc(-c2cc(-c3ccco3)nc3sc4c(NC(=O)CCl)c5c(nc4c23)CCCC5)cc1` [Compound 6a, 2-Chloro-N-(2-(furan-2-yl)-4-(4-methoxyphenyl)-6,7,8,9-tetrahydropyrido[3′,2′:4,5]thieno[3,2-b]quinolin-10-yl)acetamide] returned a melting point of 342 to 343 °C. For the same compound, the zone of inhibition at 100 µg/disc in data set [1] was found to be 12 mm. In addition, the zone of inhibition at 100 µg/disc in data set [2] worked out at 13 mm. In addition, the zone of inhibition at 100 µg/disc in the data set on Bacillus cereus 33018 [3] came to 13 mm. Moreover, the MIC in data set [4] was 31.2 mg/L (≈ 62 µM). For the same compound, in the data set with Bacillus cereus 33018 [6], the MIC is 31.2 mg/L (≈ 62 µM). Moreover, the zone of inhibition at 100 µg/disc in the data set on Escherichia coli 8739 [7] was found to be 13 mm. For the same compound, the MIC in the data set on Escherichia coli 8739 [8] stood at 31.2 mg/L (≈ 62 µM). Also, the MIC in the data set on Bacillus subtilis 6633 [10] amounted to 31.2 mg/L (≈ 62 µM). Moreover, the IC50 on DNA gyrase from E. coli turned out to be 13.7 ± 0.65 µM. Moreover, in the data set on Bacillus subtilis 6633 [11], the zone of inhibition at 100 µg/disc worked out at 10 mm. For the same compound, the MIC in data set [12] is 31.2 mg/L (≈ 62 µM).
The compound `O=C(CCl)Nc1c2c(nc3c1sc1nc(-c4ccco4)cc(-c4cccs4)c13)CCCC2` [Compound 6b, 2-Chloro-N-(2-(furan-2-yl)-4-(thiophen-2-yl)-6,7,8,9-tetrahydropyrido[3′,2′:4,5]thieno[3,2-b]quinolin-10-yl)acetamide] showed a melting point of 338 °C. For the same compound, the zone of inhibition at 100 µg/disc in data set [2] was found to be 12 mm. The zone of inhibition at 100 µg/disc in the data set with Bacillus cereus 33018 [3] worked out at 15 mm. Also, the MIC in [4] was 31.2 mg/L (≈ 65.1 µM). Also, the MIC in [5] was 31.2 mg/L (≈ 65.1 µM). Moreover, the MIC with Bacillus cereus 33018 [6] stood at 15.6 mg/L (≈ 32.6 µM). Also, in the data set with Escherichia coli 8739 [7], the zone of inhibition at 100 µg/disc turned out to be 16 mm. Also, the MIC in the data set on Escherichia coli 8739 [8] came to 15.6 mg/L (≈ 32.6 µM). Moreover, the zone of inhibition at 100 µg/disc in data set [9] was determined as 12 mm. In addition, in the data set on Bacillus subtilis 6633 [10], the MIC amounted to 15.6 mg/L (≈ 32.6 µM). The compound further yielded an IC50 against DNA gyrase from E. coli of 5.95 ± 0.34 µM. Further, the zone of inhibition at 100 µg/disc in the data set on Bacillus subtilis 6633 [11] was determined as 15 mm.
